Data as given in article PMC8230474, “Synthesis of Novel Acyl Derivatives of 3-(4,5,6,7-Tetrabromo-1H-benzimidazol-1-yl)propan-1-ols—Intracellular TBBi-Based CK2 Inhibitors with Proapoptotic Properties” (International Journal of Molecular Sciences, 2021).
Like-named read-outs stand apart in the source and are kept apart here.

How the values were obtained:
[1] = molecular target: CK2 holoenzyme (CK2 α2β2) (Homo sapiens, UniProt P68400); experiment: Radiometric (P81 filter isotopic) kinase assay, CK2 holoenzyme; assay type: biochemical; conditions: read-out: Residual Activity of the Enzyme CK2 α2β2
CK2 holoenzyme (CK2 α2β2), sequence (P68400 whole entry): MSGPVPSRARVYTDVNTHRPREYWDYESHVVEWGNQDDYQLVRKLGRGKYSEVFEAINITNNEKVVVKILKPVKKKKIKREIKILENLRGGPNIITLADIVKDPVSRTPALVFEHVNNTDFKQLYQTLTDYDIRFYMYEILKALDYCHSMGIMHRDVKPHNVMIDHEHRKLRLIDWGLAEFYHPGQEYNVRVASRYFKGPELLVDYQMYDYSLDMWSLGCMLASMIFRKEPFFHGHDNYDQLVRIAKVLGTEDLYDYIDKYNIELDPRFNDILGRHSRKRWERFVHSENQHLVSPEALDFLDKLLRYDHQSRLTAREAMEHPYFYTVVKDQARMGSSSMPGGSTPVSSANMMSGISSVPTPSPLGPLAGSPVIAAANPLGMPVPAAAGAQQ
CK2 holoenzyme (CK2 α2β2), sequence (P67870 whole entry partner): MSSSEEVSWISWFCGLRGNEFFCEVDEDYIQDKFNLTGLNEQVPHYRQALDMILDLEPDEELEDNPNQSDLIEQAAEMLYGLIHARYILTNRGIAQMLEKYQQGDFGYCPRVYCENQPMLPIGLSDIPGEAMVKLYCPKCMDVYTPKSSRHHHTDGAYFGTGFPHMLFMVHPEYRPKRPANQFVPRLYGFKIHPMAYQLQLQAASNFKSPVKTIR

[2] = molecular target: PIM1 (Homo sapiens, UniProt P11309); experiment: Radiometric (P81 filter isotopic) kinase assay, PIM1; assay type: biochemical; conditions: for Ki: calculated from IC50 by Cheng and Prusoff equation; for remaining activity at 5 µM / remaining activity at 10 µM: read-out: Residual Activity of the Enzyme PIM1
PIM1, sequence (P11309 whole entry, species assumed): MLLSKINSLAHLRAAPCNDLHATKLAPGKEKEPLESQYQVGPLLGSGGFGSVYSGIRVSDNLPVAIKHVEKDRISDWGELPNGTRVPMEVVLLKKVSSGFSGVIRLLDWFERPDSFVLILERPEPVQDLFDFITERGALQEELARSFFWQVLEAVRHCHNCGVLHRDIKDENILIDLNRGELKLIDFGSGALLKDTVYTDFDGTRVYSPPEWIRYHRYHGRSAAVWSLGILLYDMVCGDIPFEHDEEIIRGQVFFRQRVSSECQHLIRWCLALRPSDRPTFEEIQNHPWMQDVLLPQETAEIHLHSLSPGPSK

[3] = system: MCF-7 cells; experiment: Cell cycle progression by flow cytometry, MCF-7; assay type: cell-based, human; conditions: MCF-7, 72 h, compound at its EC50
[4] = system: MCF-7 cells; experiment: Annexin V-FITC/PI flow cytometry, MCF-7; assay type: cell-based, human; conditions: MCF-7, 72 h treatment, compound at its EC50
Experimental: Additionally, assaying annexin V-binding to phosphatidylserine by means of flow cytometry confirmed that derivatives 3c and 6a–c induced apoptosis in both cell lines (Figure 9, Figure S3).
MCF-7 cells were seeded in six-well plates at 1.5 × 10^5 cells/well. […] Then, the plates were incubated for 24 h or 72 h. After exposure to the examined compounds, the floating cells were collected, and monolayer cell culture was trypsinized. The cells were centrifugated at 200× g at 4 °C for 5 min, washed twice in cold phosphate-buffered saline (PBS), and subsequently suspended in binding buffer at 1 × 10^6 cells/mL. Subsequently, 100-μL aliquots of the cell suspension were labeled according to the kit manufacturer’s instructions. Briefly, annexin V-fluorescein isothiocyanate and propidium iodide (BD Biosciences, Pharmingen, San Diego, CA, USA) were added to the cell suspension, and the mixture was vortexed and then incubated for 15 min at RT in the dark. A cold binding buffer (900 μL) was then added and the cells were vortexed again and kept on ice. Flow cytometric measurements were performed within 1 h after labeling. Viable, necrotic, early, and late apoptotic cells were detected by flow cytometry using CyFlow Cube 8 (Sysmex, Norderstedt, Germany) flow cytometer.

[5] = molecular target: human CK2 catalytic subunit (CK2α) (Homo sapiens, UniProt P68400); experiment: Radiometric (P81 filter isotopic) kinase assay, CK2 catalytic subunit; assay type: biochemical; conditions: read-out: Residual Activity of the Enzyme CK2α
human CK2 catalytic subunit (CK2α), sequence (P68400 whole entry): as the sequence (P68400 whole entry) above

[6] = system: MDA-MB-231 cells; experiment: MTT viability assay, MDA-MB-231; assay type: cell-based; conditions: Homo sapiens, read-out: EC50 ± SD MDA-MB-231
Experimental: (§1) To test the anti-cancer effect of the TBBi derivatives, we treated the MCF-7 and MDA-MB-231 cells with the newly synthesized esters and previously reported compounds [34, 57] at the concentration range of 3.125 to 200 µM for 24 h, 48 h and 72 h. Additionally, the range of concentrations was extended by additional lower concentrations in MCF-7 for compound 4 with the minimum concentration of 0.195 µM. […] The EC50 values, describing the half maximal effective concentration of each tested compound, were calculated and are summarized in Table 2. […] We observed that the EC50 values increase in both cell lines with the elongation of fatty acids chain length in the tested compounds, thus strongly correlating with the decrease of their solubility in biological media as characterized by logS parameter (Table 2). The second reason for the decreased biological activity of the longer-chain aliphatic esters might be attributed to their greater resistance toward intracellular hydrolysis, which directly influences the slower release of the active form of the corresponding CK2 inhibitors. […] However, none of the tested compounds, except for compound 5, decreased the viability of both cell lines in a time-dependent manner (Figure 4).
(§2) MCF-7 and MDA-MB-231 were cultured in high-glucose Dulbecco’s modified Eagle medium (DMEM, Lonza, Basel, Switzerland) supplemented with 10% fetal bovine serum (FBS, EuroClone, Siziano, Italy)), 2 mM L-glutamine, and antibiotics (100 U/mL penicillin, 100 µg/mL streptomycin) (Sigma-Aldrich Chemical Company (St. Louis, MO, USA). Cells were grown in 75-cm^2 cell culture flasks (Sarstedt, Nümbrecht, Germany) in a humidified atmosphere of CO2/air (5%/95%) at 37 °C. All the experiments were performed in exponentially growing cultures. Stock solutions of the test compounds were prepared in DMSO and stored in −80 °C for a maximum of one month. For the cytotoxicity studies, stock solutions of the tested compounds were diluted 200-fold with the proper culture medium to obtain the final concentrations.
(§3) After incubation with the tested compounds, an MTT test was performed as described previously. Optical densities were measured at 570 nm using BioTek microplate reader (Winooski, VT, USA). All measurements were carried out in a minimum of three biological replicates.

[7] = system: MCF-7 cells; experiment: MTT viability assay, MCF-7; assay type: cell-based; conditions: Homo sapiens, read-out: EC50 ± SD MCF-7
Experimental: as §1, §2, §3

[8] = system: protein kinase CK2 in MCF-7 cells; experiment: Intracellular inhibition of CK2, Western blot of p-Ser529 p65 and p-Ser129 Akt1, MCF-7; assay type: cell-based, human
Text: (§4) We observed an inhibition of CK2 in both cell lines; however, the lower efficiency of CK2 inhibition was detected in MCF-7 considering the extent of Akt1 phosphorylation. The relative level of the phosphorylation of the tested proteins in MDA-MB-231 cells was in the range of 0.32 to 0.80 for p-Ser529 p65 and 0.41 to 0.73 for p-Ser129 Akt1, whereas in MCF-7 cells it was in the range of 0.33 to 0.78 for p-Ser529 p65 and 0.82 to 1.23 for p-Ser129 Akt1, respectively. The lowest phosphorylation levels of the tested proteins were detected in MDA-MB-231 cells for compound 6b with the relative level of 0.41 for Ser129 Akt1 as well as for compound 6c with the relative level of 0.32 for p-Ser529 p65. Among the tested proteins, the lowest extent of phosphorylation in MCF-7 cells was detected for 6b with the relative level of 0.33 for p-Ser529 p65, and for 6a with the relative level of 0.82 for Ser129 Akt1.
Considering an inefficient inhibition of CK2 in MCF-7, we evaluated an inhibition of CK2 in this cell line after 72 h. […] The relative levels were in the range of 0.17 to 0.8 for p-Ser529 p65 and 0.19 to 0.79 for p-Ser129 Akt1.
The MCF-7 cells growing exponentially were seeded at 4.8 × 10^5 cells in 6-cm-diameter plates. Subsequently, compounds were added in a final concentration of 0.5% DMSO. After incubation, floating cells were collected and cell monolayer was washed three times in ice-cold PBS and the cells were scraped, combined with floating cells and lysed in RIPA buffer consisting of 50 mM Tris-HCl (pH 7.4), 1% NP-40, 0.5% sodium deoxycholate, 0.1% SDS, 150 mM NaCl, 2 mM EDTA, 50 mM NaF, 0.2 mM sodium orthovanadate, and protease inhibitors cocktail. Subsequently, cells were sonicated (three times for 15 s), centrifuged at 20,000× g for 15 min at 4 °C, and the supernatants were collected and stored at −80 °C. The protein concentration was determined using Bradford assay. Then, supernatants were incubated with the Laemmli buffer for 5 min at 98 °C. Equal amounts of total protein (10 to 20 μg) were analyzed by SDS-PAGE, and subsequently, Western blotting was performed using primary antibodies in blocking buffer containing either 3% BSA (bovine serum albumin) or 3% milk in TBS-T (Tris-buffered saline (10 mM Tris-HCl (pH 8), 150 mM NaCl) containing 0.1% Tween 20 or 0.2% Triton X-100) for 1 h. After overnight incubation at 4 °C with the primary antibodies, the membranes were washed with TBS-T and probed with the respective secondary antibodies. The ECL substrate was used for detection and immunoblots were scanned using G Box Chemi (Syngene, Cambridge, UK) with GeneSys software (Syngene, Cambridge, UK) or were developed with the use of X-rays films. UV-irradiated Jurkat cells were used as a positive control in Western blot analysis of c-PARP1. After 2 h, one-minute UV-irradiated Jurkat leukemic T-cell line was lysed and subjected to analysis.
For densitometry, immunoblots were quantified using the Fiji distribution of the ImageJ 1.52a software (National Institutes of Health, Bethesda, MD, USA, and the University of Wisconsin, Madison, WI, USA). Phosphorylated protein densities were normalized to GAPDH densities, assuming 1 for untreated cells and then they were converted to a percent of the appropriate control.

[9] = system: MDA-MB-231 cells; experiment: Cleaved PARP1 Western blot, MDA-MB-231; assay type: cell-based, human; conditions: MDA-MB-231, 24-h treatment, compound at its EC50, untreated cells = one relative unit
[10] = system: protein kinase CK2 in MDA-MB-231 cells; experiment: Intracellular inhibition of CK2, Western blot of p-Ser529 p65 and p-Ser129 Akt1, MDA-MB-231; assay type: cell-based, human; conditions: MDA-MB-231, 24 h treatment, compound at its 72-h EC50, relative to untreated control
Text: as §4
The MCF-7 cells growing exponentially were seeded at 4.8 × 10^5 cells in 6-cm-diameter plates. Subsequently, compounds were added in a final concentration of 0.5% DMSO. […] The protein concentration was determined using Bradford assay. […]
For densitometry, immunoblots were quantified using the Fiji distribution of the ImageJ 1.52a software (National Institutes of Health, Bethesda, MD, USA, and the University of Wisconsin, Madison, WI, USA). […]

[11] = parameters: method as in PMID 8876860, PMID 9760686; conditions: higher than the parent anti-herpesvirus agent; cited from earlier work
[12] = MCF-7, 72 h treatment, compound at its EC50, relative to untreated control

SMILES	Ki [2]	cells in G1 [3]	cells in G2M [3]	cells in S [3]	EC50 ([6]; 24 h)	EC50 ([6]; 48 h)	EC50 ([6]; 72 h)	EC50 ([7]; MCF7, 24 h)	EC50 ([7]; MCF7, 48 h)	EC50 ([7]; MCF7, 72 h)	melting point	remaining activity at 5 µM ([1]; 5 µM compound)	remaining activity at 10 µM ([1]; 10 µM compound)	remaining activity at 5 µM ([2]; 5 µM compound)	remaining activity at 10 µM ([2]; 10 µM compound)	remaining activity at 5 µM ([5]; 5 µM compound)	remaining activity at 10 µM ([5]; 10 µM compound)	also measured
Brc1c(Br)c(Br)c2[nH]cnc2c1Br [Compound 1, 4,5,6,7-tetrabromo-1H-benzimidazole, reference compound]	0.27 µM	57.7%	17.2%	25.1%	51.9 ± 14.4 µM	25.1 ± 2.04 µM	24.9 ± 0.25 µM	20.8 ± 1.49 µM	18.8 ± 1.6 µM	16.9 ± 1.36 µM	–	–	–	–	–	–	–	remaining activity at 5 µM [1]: 9.6 ± 2.6%; remaining activity at 10 µM [1]: 5 ± 1.2%; remaining activity at 5 µM [2]: 11.2 ± 0.2%; remaining activity at 10 µM [2]: 5.7 ± 0.5%; necrotic cells (of total cells) [4]: 25%; remaining activity at 5 µM [5]: 19.3 ± 0.2%; remaining activity at 10 µM [5]: 12.4 ± 0.1%
CCCC(=O)OCCCn1c(C)nc2c(Br)c(Br)c(Br)c(Br)c21 [Compound 6a, 3-(4,5,6,7-Tetrabromo-2-methyl-1H-benzimidazol-1-yl)propyl butanoate]	1.94 ± 0.16 µM	56.3%	18.5%	25.2%	52.2 ± 11.7 µM	20.5 ± 1.97 µM	16.9 ± 4.07 µM	20.2 ± 1.74 µM	18.1 ± 0.52 µM	16.5 ± 1.13 µM	81 to 82 °C	75.6 ± 5.9%	49.6 ± 0.8%	38.8 ± 3.1%	19 ± 0.1%	81.5 ± 8%	68.4 ± 9.8%	relative level of p-Ser129 Akt1 ([8]; MCF-7, 24 h treatment, compound at its 72-h EC50, relative to untreated control): 0.82; relative level of p-Ser129 Akt1 [8, 12]: 0.30; relative level of p-Ser529 p65 [8, 12]: 0.19
CCCCCCCC(=O)OCCCn1c(C)nc2c(Br)c(Br)c(Br)c(Br)c21 [Compound 6c, 3-(4,5,6,7-Tetrabromo-2-methyl-1H-benzimidazol-1-yl)propyl octanoate]	–	58.9%	13.4%	27.7%	61.3 ± 2.23 µM	29.8 ± 9.85 µM	21.3 ± 2.24 µM	25.6 ± 12.3 µM	20.5 ± 2.92 µM	14.8 ± 2.14 µM	61 to 65 °C	90.2 ± 4.7%	80.8 ± 1.9%	95.2 ± 9.4%	79.8 ± 8.6%	89.9 ± 5.2%	84.3 ± 10.4%	relative level of c-PARP1 [9]: 7.14; relative level of p-Ser529 p65 [10]: 0.32
CC(=O)OCC(CCn1cnc2cnc(N)nc21)COC(C)=O [famciclovir]	–	–	–	–	–	–	–	–	–	–	–	–	–	–	–	–	–	bioavailability relative to parent penciclovir [11]: 15 fold
